Data from ChEMBL document CHEMBL3885861, “Open TG-GATES”.

Organism: Rattus norvegicus
Test: Open TG-GATES - Regimen: Daily Repeat
Assay type: toxicity, organism-based, Sprague-Dawley
Parameters: regimen Daily Repeat, gender Male, age 6 weeks
Details: in vivo, po, route gavage; for Ht / Lym / MCHC / Mono / Neu / Plat / RBC / Ret / WBC / Bas / Eos / Fbg / Hb / PT / MCV: tissue Blood; for KIDNEY_L / KIDNEY_R / KIDNEY_TOTAL: tissue Kidney; for ALP / ALT / AST / BUN / CRE / Ca / DBIL / IP / K / Na / PL / RALB / TBIL / TC / TG / TP / gamma-GTP / LDH: tissue Plasma; for LIVER: tissue Liver
[1] = 120 mg/kg, 72 h, dose level Middle, time 3 day
[2] = 120 mg/kg, […], dose level Middle, time 7 day
[3] = 120 mg/kg, […], dose level Middle, time 14 day
[4] = 120 mg/kg, […], dose level Middle, time 28 day
[5] = 400 mg/kg, 72 h, dose level High, time 3 day
[6] = 400 mg/kg, […], dose level High, time 7 day
[7] = 400 mg/kg, […], dose level High, time 14 day
[8] = 400 mg/kg, […], dose level High, time 28 day

CCC(C)(C)C(=O)O[C@H]1C[C@@H](C)C=C2C=C[C@H](C)[C@H](CC[C@@H]3C[C@@H](O)CC(=O)O3)[C@H]21 [SIMVASTATIN]
Ht [1]: 41% | Lym [1]: 80.2% | MCHC [1]: 33.2% | Mono [1]: 8.4% | Neu [1]: 10.2% | Plat [1]: 119.9 x10_4/uL | RBC [1]: 644.2 x10_4/ul | Ret [1]: 5.5% | WBC [1]: 81 x10_2/uL | KIDNEY_L [1]: 1 g | KIDNEY_R [1]: 1 g | KIDNEY_TOTAL [1]: 2 g | ALP [1]: 885.4 IU/L | ALT [1]: 42 IU/L | AST [1]: 62.2 IU/L | BUN [1]: 16.4 mg/dL | CRE [1]: 0.6 mg/dL | Ca [1]: 10.8 mg/dL | DBIL [1]: 0.012 mg/dL | IP [1]: 7.3 mg/dL | K [1]: 4.4 meq/L | Na [1]: 139.6 meq/L | PL [1]: 131.2 mg/dL | RALB [1]: 3.9 g/dL | TBIL [1]: 0.3 mg/dL | TC [1]: 81.6 mg/dL | TG [1]: 48.2 mg/dL | TP [1]: 5.6 g/dL | gamma-GTP [1]: 1.4 IU/L | TERMINAL_BW [2]: 245.2 g | TERMINAL_BW [3]: 292.4 g | TERMINAL_BW [4]: 375.8 g | Bas [2]: 0% | Eos [2]: 1% | Fbg [2]: 222.8 mg/dL | Hb [2]: 13.3 g/dL | Ht [2]: 40% | Lym [2]: 83.8% | MCHC [2]: 33.1% | Mono [2]: 7.4% | Neu [2]: 8.4% | PT [2]: 11 s | Plat [2]: 123.4 x10_4/uL | RBC [2]: 630.6 x10_4/ul | Ret [2]: 3.3% | WBC [2]: 106.6 x10_2/uL | Bas [3]: 0% | Eos [3]: 0.8% | Fbg [3]: 223.6 mg/dL | Hb [3]: 14.2 g/dL | Ht [3]: 42.5% | Lym [3]: 80% | MCHC [3]: 33.3% | Mono [3]: 5.2% | Neu [3]: 14.4% | Plat [3]: 121.2 x10_4/uL | RBC [3]: 698 x10_4/ul | Ret [3]: 6% | Bas [4]: 0% | Eos [4]: 1% | Fbg [4]: 238.8 mg/dL | Hb [4]: 15 g/dL | Ht [4]: 45.4% | Lym [4]: 83.4% | MCHC [4]: 33.1% | MCV [4]: 58.3 fL | Mono [4]: 5.2% | PT [4]: 11.8 s | Plat [4]: 116.8 x10_4/uL | RBC [4]: 778.6 x10_4/ul | Ret [4]: 2.4% | WBC [4]: 114.5 x10_2/uL | KIDNEY_L [2]: 1.1 g | KIDNEY_R [2]: 1.1 g | KIDNEY_TOTAL [2]: 2.2 g | KIDNEY_L [3]: 1.2 g | KIDNEY_R [3]: 1.2 g | KIDNEY_TOTAL [3]: 2.4 g | KIDNEY_L [4]: 1.4 g | KIDNEY_R [4]: 1.4 g | KIDNEY_TOTAL [4]: 2.7 g | LIVER [2]: 13.1 g | LIVER [3]: 14.5 g | LIVER [4]: 17.7 g | ALP [2]: 848 IU/L | ALT [2]: 38.2 IU/L | AST [2]: 67.4 IU/L | BUN [2]: 21.4 mg/dL | CRE [2]: 0.6 mg/dL | DBIL [2]: 0.012 mg/dL | IP [2]: 7.1 mg/dL | K [2]: 4.8 meq/L | LDH [2]: 124.8 IU/L | Na [2]: 141.2 meq/L | PL [2]: 140.8 mg/dL | RALB [2]: 3.9 g/dL | TBIL [2]: 0.3 mg/dL | TC [2]: 74.6 mg/dL | TG [2]: 78.8 mg/dL | TP [2]: 5.8 g/dL | gamma-GTP [2]: 0.8 IU/L | ALP [3]: 763.4 IU/L | ALT [3]: 37.6 IU/L | AST [3]: 67 IU/L | BUN [3]: 20.6 mg/dL | CRE [3]: 0.6 mg/dL | Ca [3]: 11 mg/dL | DBIL [3]: 0.01 mg/dL | IP [3]: 7.2 mg/dL | K [3]: 4.3 meq/L | LDH [3]: 110.6 IU/L | Na [3]: 140.4 meq/L | PL [3]: 150.4 mg/dL | RALB [3]: 4 g/dL | TBIL [3]: 0.4 mg/dL | TC [3]: 76.2 mg/dL | TG [3]: 119.6 mg/dL | TP [3]: 5.9 g/dL | gamma-GTP [3]: 1.2 IU/L | ALP [4]: 716 IU/L | ALT [4]: 36.6 IU/L | AST [4]: 59.4 IU/L | BUN [4]: 19.8 mg/dL | CRE [4]: 0.7 mg/dL | Ca [4]: 10.9 mg/dL | DBIL [4]: 0.016 mg/dL | IP [4]: 6.4 mg/dL | K [4]: 4.2 meq/L | LDH [4]: 107.8 IU/L | Na [4]: 142.6 meq/L | PL [4]: 139.6 mg/dL | RALB [4]: 4 g/dL | TBIL [4]: 0.3 mg/dL | TC [4]: 71.4 mg/dL | TG [4]: 128.2 mg/dL | TP [4]: 6.2 g/dL | gamma-GTP [4]: 2.2 IU/L | TERMINAL_BW [5]: 181.9 g | Bas [5]: 0% | Eos [5]: 1% | Fbg [5]: 202.2 mg/dL | Hb [5]: 15.1 g/dL | Ht [5]: 45.5% | Lym [5]: 72.4% | MCHC [5]: 33.3% | Mono [5]: 5.8% | Neu [5]: 20.6% | PT [5]: 15.6 s | Plat [5]: 126.8 x10_4/uL | RBC [5]: 699.4 x10_4/ul | Ret [5]: 2.6% | WBC [5]: 96.5 x10_2/uL | KIDNEY_L [5]: 0.9 g | KIDNEY_R [5]: 0.9 g | KIDNEY_TOTAL [5]: 1.8 g | LIVER [5]: 9.1 g | ALP [5]: 613.8 IU/L | ALT [5]: 173.4 IU/L | AST [5]: 134 IU/L | BUN [5]: 15 mg/dL | CRE [5]: 0.5 mg/dL | Ca [5]: 10 mg/dL | DBIL [5]: 0.012 mg/dL | IP [5]: 6.9 mg/dL | K [5]: 5 meq/L | LDH [5]: 155.8 IU/L | Na [5]: 137.2 meq/L | PL [5]: 82.2 mg/dL | RALB [5]: 4 g/dL | TBIL [5]: 0.4 mg/dL | TC [5]: 51.4 mg/dL | TG [5]: 17.6 mg/dL | TP [5]: 5.3 g/dL | gamma-GTP [5]: 1.6 IU/L | TERMINAL_BW [6]: 208 g | TERMINAL_BW [7]: 268.6 g | TERMINAL_BW [8]: 365.2 g | Bas [6]: 0% | Eos [6]: 1% | Fbg [6]: 212.2 mg/dL | Hb [6]: 13.7 g/dL | Ht [6]: 41.7% | Lym [6]: 78% | MCHC [6]: 32.8% | Mono [6]: 7.5% | Neu [6]: 13.5% | PT [6]: 12.8 s | Plat [6]: 138.7 x10_4/uL | RBC [6]: 658.2 x10_4/ul | Ret [6]: 3.4% | WBC [6]: 98.8 x10_2/uL | Bas [7]: 0% | Eos [7]: 1% | Fbg [7]: 255.2 mg/dL | Hb [7]: 13.5 g/dL | Ht [7]: 40.7% | Lym [7]: 72.8% | MCHC [7]: 33.1% | Mono [7]: 9.5% | Neu [7]: 17.2% | PT [7]: 12.1 s | Plat [7]: 148 x10_4/uL | RBC [7]: 673.5 x10_4/ul | Ret [7]: 8.1% | WBC [7]: 114.1 x10_2/uL | Bas [8]: 0% | Eos [8]: 1% | Fbg [8]: 234.2 mg/dL | Hb [8]: 14.6 g/dL | Ht [8]: 44% | Lym [8]: 80.2% | MCHC [8]: 33.1% | MCV [8]: 58.5 fL | Mono [8]: 5.6% | Neu [8]: 13.8% | PT [8]: 13 s | Plat [8]: 130.1 x10_4/uL | RBC [8]: 753.2 x10_4/ul | Ret [8]: 3% | WBC [8]: 117.8 x10_2/uL | KIDNEY_L [6]: 1 g | KIDNEY_R [6]: 1 g | KIDNEY_TOTAL [6]: 1.9 g | KIDNEY_L [7]: 1.2 g | KIDNEY_R [7]: 1.2 g | KIDNEY_TOTAL [7]: 2.4 g | KIDNEY_L [8]: 1.3 g | KIDNEY_R [8]: 1.4 g | KIDNEY_TOTAL [8]: 2.7 g | LIVER [6]: 12.1 g | LIVER [7]: 16 g | LIVER [8]: 20.6 g | ALP [6]: 693.8 IU/L | ALT [6]: 96.2 IU/L | AST [6]: 100.2 IU/L | BUN [6]: 21 mg/dL | CRE [6]: 0.6 mg/dL | Ca [6]: 11.3 mg/dL | DBIL [6]: 0.025 mg/dL | IP [6]: 6.2 mg/dL | K [6]: 4.7 meq/L | LDH [6]: 136 IU/L | Na [6]: 141.2 meq/L | PL [6]: 116.8 mg/dL | RALB [6]: 4.1 g/dL | TBIL [6]: 0.3 mg/dL | TC [6]: 67.5 mg/dL | TG [6]: 36.8 mg/dL | TP [6]: 5.9 g/dL | gamma-GTP [6]: 1.2 IU/L | ALP [7]: 717.5 IU/L | ALT [7]: 100.5 IU/L | AST [7]: 275.8 IU/L | BUN [7]: 19.2 mg/dL | CRE [7]: 0.6 mg/dL | Ca [7]: 10.8 mg/dL | DBIL [7]: 0.0075 mg/dL | IP [7]: 6.7 mg/dL | K [7]: 4.2 meq/L | LDH [7]: 121.2 IU/L | Na [7]: 140 meq/L | PL [7]: 115 mg/dL | RALB [7]: 3.7 g/dL | TBIL [7]: 0.3 mg/dL | TC [7]: 66.5 mg/dL | TG [7]: 60.5 mg/dL | TP [7]: 5.5 g/dL | gamma-GTP [7]: 2.2 IU/L | ALP [8]: 691.8 IU/L | ALT [8]: 55 IU/L | AST [8]: 71.6 IU/L | BUN [8]: 23.6 mg/dL | CRE [8]: 0.6 mg/dL | Ca [8]: 10.9 mg/dL | DBIL [8]: 0.018 mg/dL | IP [8]: 5.6 mg/dL | K [8]: 4.4 meq/L | LDH [8]: 132 IU/L | Na [8]: 142.6 meq/L | PL [8]: 116.2 mg/dL | RALB [8]: 4.1 g/dL | TBIL [8]: 0.3 mg/dL | TC [8]: 57.6 mg/dL | TG [8]: 85.4 mg/dL | TP [8]: 6.1 g/dL | gamma-GTP [8]: 1.2 IU/L
